# In PubChem BioAssay (NCI):
#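 Step 1: Grow cells in 96-well plates. Step 2: Expose to compound for 48 hours at 5 concentrations. Step 3: Interpolate endpoints linearly; if unreached, use highest concentration. Abbreviation: GI50, concentration required for 50% inhibition of growth. TGI: total growth inhibition.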
# Experiments:
# Test in all cases: growth of human tumour cells (NCI), 48 h
# [1] = system: OVCAR-3 ovarian
# [2] = system: SK-MEL-28 melanoma
# [3] = system: LOX IMVI melanoma
# [4] = system: RPMI-8226 leukemia
# [5] = system: SNB-75 CNS
# [6] = system: TK-10 renal
# [7] = system: SK-MEL-2 melanoma
# [8] = system: SK-MEL-5 melanoma
# [9] = system: SF-539 CNS
# [10] = system: HL-60(TB) leukemia
Structure (SMILES),TGI [1] [µM],TGI [2] [µM],TGI [3] [µM],TGI [4] [µM],TGI [5] [µM],TGI [6] [µM],TGI [7] [µM],TGI [8] [µM],TGI [9] [µM],TGI [10] [µM],GI50 [9] [µM],GI50 [2] [µM],GI50 [10] [µM],GI50 [3] [µM],GI50 [4] [µM],GI50 [5] [µM],GI50 [7] [µM],GI50 [1] [µM],GI50 [8] [µM]
CN1C[C@H]2[C@@H](C1=O)[C@H](c1ccccc1)ON2C,> 100,> 100,> 100,> 100,> 100,> 100,> 100,> 100,,,,,,,,,,,
CC(=O)O[C@H]1C=CC(=O)C(C)CC1C (some centres undefined),> 100,> 100,> 100,,> 100,> 100,> 100,> 100,> 100,> 100,,,,,,,,,
COc1ccc(-c2nn(-c3cccc(NC(=O)Nc4ccccc4)c3)cc2-c2ccncc2)cc1Cl,,7.16,17,5.83,2.79,,7.53,,3.5,6.36,1.8,2.62,2.52,3.25,2.14,1.33,3.14,,
Fc1ccc(-c2nn3c(-c4cc(C(F)(F)F)cc(C(F)(F)F)c4)nnc3s2)cc1,2.42,,,> 50,2.36,,4.75,> 50,> 50,,3.07,,,,> 50,0.886,1.64,1.16,4.42
C=C1C(=O)O[C@@H]2[C@H]1CCC(C)=C1C=CC(=O)[C@]12C,31,23.4,,49.7,34.4,38,79.4,27.5,30,14,,,,,,,,,
CC(=O)C=NCC(=O)O,> 100,> 100,> 100,> 100,> 100,> 100,> 100,> 100,> 100,> 100,,,,,,,,,
O=C(Nc1ccc(Sc2ccc(N=Nc3c(O)c(S(=O)(=O)O)cc4cc(S(=O)(=O)O)ccc34)cc2)cc1)c1ccc(N=Nc2c(O)ccc3c(S(=O)(=O)O)cc(S(=O)(=O)O)cc23)cc1,92.5,> 100,34.8,73.4,> 100,> 100,> 100,43.3,> 100,33.5,,,,,,,,,
c1ccc(N=c2nc(N3CCOCC3)ss2)cc1,,32.1,30.1,,39,> 100,43.4,> 100,32.3,47.3,,,,,,,,,
N#CC(Nc1cccc(C(F)(F)F)c1)c1ccccc1C(F)(F)F (centres undefined),16.3,31.8,14.5,,32.2,27.9,17.9,32.1,33.1,7.57,,,,,,,,,
CCC(=O)NC(Nc1cccc(F)c1)(C(F)(F)F)C(F)(F)F,> 100,> 100,> 100,> 100,> 100,> 100,> 100,> 100,> 100,> 100,,,,,,,,,
